Here are results for 11 compounds from patent publication US20240116985A1, “STAPLED PEPTIDES AND METHODS THEREOF” (priority 2020, published 2024).

Each structure is given as a SMILES string.

For orientation: IC50 means the concentration that gives 50% inhibition.

The target in assay [1] is T1, beta-catenin/TCF4 engagement (Homo sapiens, UniProt P35222).
T1 construct: expressed in transfected cells; host or cells: HEK293
T1 sequence (P35222 1-781): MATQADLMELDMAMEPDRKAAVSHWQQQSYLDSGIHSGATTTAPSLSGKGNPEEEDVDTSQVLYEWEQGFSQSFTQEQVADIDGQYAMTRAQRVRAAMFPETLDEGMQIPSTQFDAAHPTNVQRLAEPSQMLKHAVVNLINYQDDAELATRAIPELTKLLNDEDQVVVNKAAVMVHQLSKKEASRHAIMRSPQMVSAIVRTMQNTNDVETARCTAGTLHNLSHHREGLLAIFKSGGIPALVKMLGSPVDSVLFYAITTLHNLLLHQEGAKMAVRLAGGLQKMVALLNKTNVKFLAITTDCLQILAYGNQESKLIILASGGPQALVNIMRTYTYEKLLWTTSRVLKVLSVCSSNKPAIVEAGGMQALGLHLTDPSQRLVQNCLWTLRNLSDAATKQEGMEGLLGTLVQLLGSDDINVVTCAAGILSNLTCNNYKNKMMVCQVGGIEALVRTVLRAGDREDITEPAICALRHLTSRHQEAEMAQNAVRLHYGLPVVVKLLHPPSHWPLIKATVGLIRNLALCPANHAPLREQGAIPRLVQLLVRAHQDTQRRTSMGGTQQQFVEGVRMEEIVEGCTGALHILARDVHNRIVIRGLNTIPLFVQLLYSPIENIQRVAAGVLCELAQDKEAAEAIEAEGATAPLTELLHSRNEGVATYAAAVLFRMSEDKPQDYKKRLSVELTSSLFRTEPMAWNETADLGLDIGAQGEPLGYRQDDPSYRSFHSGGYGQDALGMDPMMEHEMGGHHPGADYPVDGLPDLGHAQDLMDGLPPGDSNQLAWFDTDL
Kind of assay: Nano-BRET target engagement assay (B-cat-Halo & TCF4-Luc in HEK293 cells). In kind it is cell-based. As to conditions: absolute IC50; read-out: NanoBRET Abs IC50. Background: Bioluminescence resonance energy transfer reports proximity on the nanometre scale.

The target of assay [2] is T2, full-length beta-Catenin (Uniprot ID P35222) (Homo sapiens, UniProt P35222).
T2 construct: 10 nM full-length beta-Catenin (Uniprot ID P35222)
T2 sequence (P35222 1-781): T1 sequence (P35222 1-781)
As to the kind of experiment: Fluorescence polarization IC50 (beta-catenin / 5FAM-TCF4 10-53 competition). In kind it is binding. Particulars: fluorescence polarization; read-out: beta-Catenin FP IC50. A general note: Polarisation of emitted light reports the rotation of a fluorescent probe.

For the compound `CC(=O)N1CCC[C@]12CC=CCCCC1(CCCC=CCCCOC(=O)N3CC[C@@](C(=O)N[C@@H](Cc4ccsc4)C(=O)N[C@@H](Cc4csc5ccccc45)C(=O)N[C@@H](CO)C(N)=O)(C3)NC(=O)[C@H](CC(C)C)NC(=O)[C@H](Cc3ccccc3)NC(=O)[C@H](C)NC(=O)[C@H](C)NC(=O)[C@H](Cc3cc(C(=O)O)cc(C(F)(F)F)c3)NC(=O)[C@H](CC(=O)O)NC1=O)NC(=O)[C@H](CC(C)(C)C)NC(=O)[C@H](CC(=O)O)NC2=O` (stereo partly drawn) [I-2209, Ac-PL3-Asp-Npg-B5-Asp-5F3Me3COOHF-Ala-Ala-Phe-Leu-PyrS2-3Thi-BztA-Ser-NH2], the values for the IC50 in assay [1] and in assay [2] were 18600 nM and 50 nM, respectively.

In the case of `CC(=O)N1CCC[C@]12CC=CCCCC1(CCCC=CCCCOC(=O)N3CC[C@@](C(=O)N[C@@H](Cc4ccccc4Cl)C(=O)N[C@@H](Cc4csc5ccccc45)C(=O)N[C@@H](CO)C(N)=O)(C3)NC(=O)[C@H](CC(C)C)NC(=O)[C@H](Cc3ccccc3)NC(=O)[C@H](C)NC(=O)[C@H](C)NC(=O)[C@H](Cc3cc(C(=O)O)cc(C(F)(F)F)c3)NC(=O)[C@H](CC(=O)O)NC1=O)NC(=O)[C@H](CC(C)(C)C)NC(=O)[C@H](CC(=O)O)NC2=O` (stereo partly drawn) [I-2210, Ac-PL3-Asp-Npg-B5-Asp-5F3Me3COOHF-Ala-Ala-Phe-Leu-PyrS2-2C1F-BztA-Ser-NH2], the IC50 was found to be 12400 nM in assay [1] and 128 nM in assay [2].

In the case of `CC(=O)N1CCC[C@]12CC=CCCCC1(CCCC=CCCCOC(=O)N3CC[C@@](C(=O)N[C@@H](Cc4ccsc4)C(=O)N[C@@H](Cc4csc5ccccc45)C(=O)N[C@@H](C)C(N)=O)(C3)NC(=O)[C@H](CC(C)C)NC(=O)[C@H](Cc3ccccc3)NC(=O)[C@H](C)NC(=O)[C@H](CCC(N)=O)NC(=O)[C@H](Cc3cc(C(=O)O)cc(C(F)(F)F)c3)NC(=O)[C@H](CC(=O)O)NC1=O)NC(=O)[C@H](CC(C)(C)C)NC(=O)[C@H](CC(=O)O)NC2=O` (stereo partly drawn) [I-2211, Ac-PL3-Asp-Npg-B5-Asp-5F3Me3COOHF-Gln-Ala-Phe-Leu-PyrS2-3Thi-BztA-Ala-NH2], the 50% inhibitory concentration (IC50) in assay [1] turned out to be 12900 nM; in assay [2], 23 nM.

As for `CC(=O)N1CCC[C@]12CC=CCCCC1(CCCC=CCCCOC(=O)N3CC[C@@](C(=O)N[C@@H](Cc4ccsc4)C(=O)N[C@@H](Cc4ccc(Cl)c(Cl)c4)C(=O)N[C@@H](CCC(N)=O)C(N)=O)(C3)NC(=O)[C@H](CC(C)C)NC(=O)[C@H](Cc3ccccc3)NC(=O)[C@H](C)NC(=O)[C@H](C)NC(=O)[C@H](Cc3cccc(C(=O)O)c3)NC(=O)[C@H](CC(=O)O)NC1=O)NC(=O)[C@H](CC(C)(C)C)NC(=O)[C@H](CC(=O)O)NC2=O` (stereo partly drawn) [I-2216, Ac-PL3-Asp-Npg-B5-Asp-3COOHF-Ala-Ala-Phe-Leu-PyrS2-3Thi-34C1F-Gln-NH2], the values for the half-inhibitory concentration (IC50) in assay [1] and in assay [2] were 3400 nM and 7 nM, respectively.

As to `CC(=O)N1CCC[C@]12CC=CCCCC1(CCCC=CCCCOC(=O)N3CC[C@@](C(=O)N[C@@H](Cc4ccsc4)C(=O)N[C@@H](Cc4ccc(Cl)c(Cl)c4)C(=O)N[C@@H](C)C(N)=O)(C3)NC(=O)[C@H](C(C)C)NC(=O)[C@H](Cc3ccccc3)NC(=O)[C@H](C)NC(=O)[C@H](CCC(N)=O)NC(=O)[C@H](Cc3cccc(C(=O)O)c3)NC(=O)[C@H](CC(=O)O)NC1=O)NC(=O)[C@H](CC(C)(C)C)NC(=O)[C@H](CC(=O)O)NC2=O` (stereo partly drawn) [I-2217, Ac-PL3-Asp-Npg-B5-Asp-3COOHF-Gln-Ala-Phe-Val-PyrS2-3Thi-34C1F-Ala-NH2], the results for the IC50 in assay [1] and in assay [2] were 2100 nM and 6 nM, respectively.

Regarding `CC(=O)N1CCC[C@]12CC=CCCCC1(CCCC=CCCCOC(=O)N3CC[C@@](C(=O)N[C@@H](Cc4ccccc4C(F)(F)F)C(=O)N[C@@H](Cc4ccc(Cl)c(Cl)c4)C(=O)N[C@@H](CO)C(N)=O)(C3)NC(=O)[C@H](CC(C)C)NC(=O)[C@H](Cc3ccccc3)NC(=O)[C@H](C)NC(=O)[C@H](C)NC(=O)[C@H](Cc3cccc(C(=O)O)c3)NC(=O)[C@H](CC(=O)O)NC1=O)NC(=O)[C@H](CC(C)(C)C)NC(=O)[C@H](CC(=O)O)NC2=O` (stereo partly drawn) [I-2218, Ac-PL3-Asp-Npg-B5-Asp-3COOHF-Ala-Ala-Phe-Leu-PyrS2-2F3MeF-34C1F-Ser-NH2], the 50% inhibitory concentration (IC50) was found to be 5100 nM in assay [1] and 34 nM in assay [2].

On to `CC(=O)N1CCC[C@]12CC=CCCCC1(CCCC=CCCCOC(=O)N3CC[C@@](C(=O)N[C@@H](Cc4ccccc4C(F)(F)F)C(=O)N[C@@H](Cc4ccc(Cl)c(Cl)c4)C(=O)N[C@@H](C)C(N)=O)(C3)NC(=O)[C@H](CC(C)C)NC(=O)[C@H](Cc3ccccc3)NC(=O)[C@H](C)NC(=O)[C@H](CCC(N)=O)NC(=O)[C@H](Cc3cccc(C(=O)O)c3)NC(=O)[C@H](CC(=O)O)NC1=O)NC(=O)[C@H](CC(C)(C)C)NC(=O)[C@H](CC(=O)O)NC2=O` (stereo partly drawn) [I-2219, Ac-PL3-Asp-Npg-B5-Asp-3COOHF-Gln-Ala-Phe-Leu-PyrS2-2F3MeF-34C1F-Ala-NH2], for which the figures for the half-inhibitory concentration (IC50) in assay [1] and in assay [2] were 2700 nM and 21 nM, respectively.

With `CC(=O)N1CCC[C@]12CC=CCCCC1(CCCC=CCCCOC(=O)N3CC[C@@](C(=O)N[C@@H](Cc4ccsc4)C(=O)N[C@@H](Cc4ccc(Cl)cc4)C(=O)N[C@@H](CCC(N)=O)C(N)=O)(C3)NC(=O)[C@H](CC(C)C)NC(=O)[C@H](Cc3ccccc3)NC(=O)[C@H](C)NC(=O)[C@H](C)NC(=O)[C@H](Cc3cccc(C(=O)O)c3)NC(=O)[C@H](CC(=O)O)NC1=O)NC(=O)[C@H](CC(C)(C)C)NC(=O)[C@H](CC(=O)O)NC2=O` (stereo partly drawn) [I-2220, Ac-PL3-Asp-Npg-B5-Asp-3COOHF-Ala-Ala-Phe-Leu-PyrS2-3Thi-4C1F-Gln-NH2], the results for the IC50 in assay [1] and in assay [2] were 16300 nM and 12 nM, respectively.

With `CC(=O)N1CCC[C@]12CC=CCCCC1(CCCC=CCCCOC(=O)N3CC[C@@](C(=O)N[C@@H](Cc4ccsc4)C(=O)N[C@@H](Cc4ccc(Cl)cc4)C(=O)N[C@@H](C)C(N)=O)(C3)NC(=O)[C@H](C(C)C)NC(=O)[C@H](Cc3ccccc3)NC(=O)[C@H](C)NC(=O)[C@H](CCC(N)=O)NC(=O)[C@H](Cc3cccc(C(=O)O)c3)NC(=O)[C@H](CC(=O)O)NC1=O)NC(=O)[C@H](CC(C)(C)C)NC(=O)[C@H](CC(=O)O)NC2=O` (stereo partly drawn) [I-2221, Ac-PL3-Asp-Npg-B5-Asp-3COOHF-Gln-Ala-Phe-Val-PyrS2-3Thi-4C1F-Ala-NH2], the IC50 was found to be 5000 nM in assay [1] and 11 nM in assay [2].

With `CC(=O)N1CCC[C@]12CC=CCCCC1(CCCC=CCCCOC(=O)N3CC[C@@](C(=O)N[C@@H](Cc4ccccc4C(F)(F)F)C(=O)N[C@@H](Cc4ccc(Cl)cc4)C(=O)N[C@@H](CO)C(N)=O)(C3)NC(=O)[C@H](CC(C)C)NC(=O)[C@H](Cc3ccccc3)NC(=O)[C@H](C)NC(=O)[C@H](C)NC(=O)[C@H](Cc3cccc(C(=O)O)c3)NC(=O)[C@H](CC(=O)O)NC1=O)NC(=O)[C@H](CC(C)(C)C)NC(=O)[C@H](CC(=O)O)NC2=O` (stereo partly drawn) [I-2222, Ac-PL3-Asp-Npg-B5-Asp-3COOHF-Ala-Ala-Phe-Leu-PyrS2-2F3MeF-4C1F-Ser-NH2], the IC50 in assay [1] worked out at 11700 nM; in assay [2], 84 nM.

For the compound `CC(=O)N1CCC[C@]12CC=CCCCC1(CCCC=CCCCOC(=O)N3CC[C@@](C(=O)N[C@@H](Cc4ccccc4C(F)(F)F)C(=O)N[C@@H](Cc4ccc(Cl)cc4)C(=O)N[C@@H](C)C(N)=O)(C3)NC(=O)[C@H](CC(C)C)NC(=O)[C@H](Cc3ccccc3)NC(=O)[C@H](C)NC(=O)[C@H](CCC(N)=O)NC(=O)[C@H](Cc3cccc(C(=O)O)c3)NC(=O)[C@H](CC(=O)O)NC1=O)NC(=O)[C@H](CC(C)(C)C)NC(=O)[C@H](CC(=O)O)NC2=O` (stereo partly drawn) [I-2223, Ac-PL3-Asp-Npg-B5-Asp-3COOHF-Gln-Ala-Phe-Leu-PyrS2-2F3MeF-4C1F-Ala-NH2], the concentration for half-maximal inhibition (IC50) in assay [1] is 9000 nM; in assay [2], 50 nM.
